Measurements taken from PubChem BioAssay (NCI).
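How tested: cells in 96-well plates exposed to compound for 48 hours at five concentrations. GI50 marks 50% less growth. The concentration for full growth arrest is given as TGI.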

How the values were obtained:
Assay in all cases: inhibition of tumour cell growth, NCI panel, 48 h
[1] = tested on: IGROV1 ovarian
[2] = tested on: CCRF-CEM leukemia
[3] = tested on: HOP-62 NSCLC
[4] = tested on: PC-3 prostate
[5] = tested on: SK-MEL-2 melanoma
[6] = tested on: SK-MEL-5 melanoma
[7] = tested on: ACHN renal
[8] = tested on: SF-539 CNS
[9] = tested on: MDA-MB-435
[10] = tested on: NCI-H460 lung

| Structure (SMILES) | GI50 [1] [µM] | GI50 [2] [µM] | TGI [2] [µM] | GI50 [3] [µM] | TGI [3] [µM] | GI50 [4] [µM] | TGI [4] [µM] | GI50 [5] [µM] | GI50 [6] [µM] | TGI [6] [µM] | GI50 [7] [µM] | TGI [7] [µM] | GI50 [8] [µM] | TGI [8] [µM] | GI50 [9] [µM] | TGI [9] [µM] | GI50 [10] [µM] | TGI [10] [µM] | TGI [1] [µM] | TGI [5] [µM] |
| --- | --- | --- | --- | --- | --- | --- | --- | --- | --- | --- | --- | --- | --- | --- | --- | --- | --- | --- | --- | --- |
| CCN(CC)c1ccc(/C=N/NC(=O)c2ccc(Nc3ccnc(C(F)(F)F)c3)cc2)c(O)c1 | 0.158 | 0.0532 | 0.771 | 0.187 | 1.07 | 0.434 | > 100 | 0.718 | 0.412 | 1.71 | 0.142 | 2.56 | 0.234 | 0.87 | 0.454 | 7.79 | 0.212 | 1.48 | – | – |
| Cc1c(C(=O)/C=C/c2ccc(O)cc2)nnn1-c1ccnc2c(C(F)(F)F)cccc12 | 21.9 | 4.54 | > 100 | 67.7 | > 100 | 7.88 | > 100 | > 100 | 4.81 | 24.8 | 31.5 | > 100 | 72.5 | > 100 | 10.8 | > 100 | 15 | > 100 | > 100 | > 100 |
| O=c1cc/c(=N\Nc2ccccc2)c(=O)/c1=N/Nc1ccccc1 | > 50 | > 50 | > 50 | > 50 | > 50 | > 50 | > 50 | > 50 | > 50 | > 50 | > 50 | > 50 | > 50 | > 50 | > 50 | > 50 | > 50 | > 50 | > 50 | > 50 |
| COc1cc2c(cc1OCCCCCOc1cc(-c3ccc(F)cc3)nc(C)n1)N=C[C@@H]1CCCN1C2=O | > 27.8 | – | > 45.2 | > 50.2 | > 79.4 | > 33.3 | > 60.5 | > 48.3 | – | > 26.2 | > 37.6 | > 68.6 | > 100 | > 100 | > 45.3 | > 67.5 | > 36 | > 58.5 | > 49.6 | > 68.7 |
| Cc1cccc2c3c(sc12)C(c1ccc(Cl)cc1)C(C#N)=C(/N=C/c1ccc(Cl)cc1)O3 (stereo unspecified) | 0.413 | 0.381 | > 63.7 | 0.573 | 36.5 | 0.392 | > 100 | 2.86 | 0.47 | > 100 | 0.858 | > 100 | 0.298 | 1.26 | 0.172 | 0.407 | 0.425 | > 100 | > 100 | 29.9 |
| CCCCCCn1c(-c2ccc(C(=O)O/N=C(\N)c3ccc(OC)cc3)cc2)nc(-c2ccccc2)c1-c1ccccc1 | 0.295 | 0.506 | 2.85 | 1.9 | 4.66 | 1.67 | 4.16 | 2.93 | 1.92 | 3.71 | 0.354 | 1.23 | 1.5 | 3.02 | 1.66 | 3.2 | 1.85 | 3.93 | 0.869 | 9.46 |
| FC(F)(F)c1ccc2c(c1)N(CCCN1CCN(C3CC3)CC1)c1ccccc1S2 | 11.6 | 9.11 | 29.3 | 14.4 | 27.8 | 5.81 | 20.2 | 18.9 | 4.08 | 14.4 | 10.6 | 24.6 | 14 | 29.5 | 12.2 | 27.6 | 5.99 | 19.8 | 28.3 | 34.9 |
| C[C@]12CC[C@H]3[C@@H](CCC4=CC(=O)CC[C@@H]43)[C@@H]1CC[C@@H]2OC1(O)C(=O)c2ccccc2C1=O | – | – | > 100 | – | > 100 | – | > 100 | – | – | 35 | – | 79.4 | – | > 100 | – | > 100 | – | > 100 | > 100 | > 100 |
| CC1(C)CCSC(/C=C/c2ccccc2)=N1 | – | – | > 100 | – | 32.8 | – | 30.5 | – | – | 28.8 | – | 38.8 | – | 43.5 | – | 32.6 | – | 24.6 | 37.8 | 28.8 |
| [N-]=[N+]=Nc1ncc(-c2ccc(C(F)(F)F)cc2)c(NC2CCCCCC2)n1 | > 10 | > 10 | > 10 | > 10 | > 10 | > 10 | > 10 | > 10 | > 10 | > 10 | > 10 | > 10 | > 10 | > 10 | > 10 | > 10 | > 10 | > 10 | > 10 | > 10 |
| Clc1nc(Cl)c2ncn(C/C=C\Cn3cnc4c(Cl)nc(Cl)nc43)c2n1 | 1.17 | 0.739 | 2.36 | 1.74 | 4.71 | 2.05 | 4.54 | 1.75 | 2.92 | 10.5 | 1.97 | 3.46 | 2.49 | 5.97 | 1.88 | 3.77 | 3.24 | 11.2 | 2.94 | 3.66 |
| COc1ncnc2c(NC3OC(CO)C(O)C3O)ncnc12 (stereo unspecified) | – | – | 1.57 | – | 18 | – | 12.6 | – | – | > 39.8 | – | > 53.7 | – | 1.33 | – | > 100 | – | > 83.5 | 3.82 | > 100 |
| CCOC(=O)c1cc2c(cc1Cl)SC(N(c1ccc(F)cc1)S(=O)(=O)c1ccc(OC)cc1)=NS2(=O)=O | 37.7 | 1.31 | 54.2 | 35.1 | > 100 | 11.3 | 25.5 | 12.4 | 13.6 | 26.5 | 18.5 | 42.1 | 9.61 | 22.7 | 14.8 | 44.7 | 17 | 36.2 | > 100 | 35.1 |
| CN(C)c1cccc2[nH]c(-c3[nH]ncc3Nc3ccnc(N)n3)nc12 | 0.0201 | < 0.0118 | 4.48 | 0.0273 | 0.629 | 0.0147 | 0.276 | 0.021 | 0.0295 | 0.15 | 0.0165 | 0.679 | < 0.0118 | 0.0608 | 0.0237 | 0.719 | 0.054 | 1.05 | 0.346 | 0.0692 |
| Cc1sc2ncnc(Sc3nc4ccccc4[nH]3)c2c1C | 33.2 | 21.1 | > 100 | 18.7 | 52 | 23.9 | > 100 | 33.5 | 22 | > 100 | 24.4 | > 100 | 38.4 | > 100 | 26.3 | > 100 | 27.6 | > 100 | > 100 | 99 |
| COc1nccc(-c2c(-c3ccc(F)cc3)ncn2C2CCC(O)CC2)n1 (stereo unspecified) | 22.2 | > 84.5 | > 100 | 99 | > 100 | > 100 | > 100 | > 100 | 43.1 | > 100 | 14.8 | > 100 | > 100 | > 100 | 54.3 | > 100 | 29.9 | > 100 | > 100 | > 100 |
| CCCCCCCCCCCCCCCCC(C(=O)O)C(O)(CC(=O)O)C(=O)O (stereo unspecified) | – | – | 79.2 | – | 34.1 | – | 38.8 | – | – | > 100 | – | > 100 | – | 89.3 | – | > 100 | – | 46.6 | 46.4 | 41.4 |
| COC(=O)c1c2c(c(C)[n+]([O-])c1C)C(=O)C=C(NCc1ccc(Cl)cc1)C2=O | 0.346 | 0.471 | 4.2 | 1.15 | 3.46 | 0.289 | 3.17 | 1.05 | 0.176 | 0.337 | 0.233 | 1.91 | 0.733 | 1.98 | 0.0895 | 0.229 | 0.397 | 1.71 | 1.82 | 2.73 |
| CCOC(=O)C1CCC/C1=N\N=C(N)N (stereo unspecified) (tested in a mixture with another compound) | – | – | > 100 | – | > 100 | – | > 100 | – | – | > 100 | – | > 100 | – | > 100 | – | > 100 | – | > 100 | > 100 | > 100 |
| O=C1C(NCCO)=C(N2CC2)C(=O)C(NCCO)=C1N1CC1 | – | – | 55.9 | – | 66.7 | – | > 100 | – | – | > 85.5 | – | > 100 | – | 98 | – | > 100 | – | > 66.2 | > 100 | > 73.9 |
| O=C(Oc1ccccc1)c1cc(O)c(O)c(O)c1 | 11.6 | 1.28 | > 100 | 5.13 | 70.3 | 13.7 | > 100 | 35.9 | 11.4 | 38.8 | 9.72 | > 100 | 5.65 | 36.3 | 13.1 | > 100 | 4.54 | > 100 | > 100 | > 100 |
